Assay [1] concerns primary human fibroblasts derived from IPF patients (LL29 cells). Nature of the assay: Inhibition of the fibrotic process: αSMA staining in TGF-β1 treated LL29 fibroblasts. Format: cell-based. Particulars: Homo sapiens, Fibroblast, 96 h; LL29 cells, TGF-β1 20 ng/mL, 4 days, % αSMA positive cells. Summed up:
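LL29 fibroblasts from IPF patients, in F12 medium with 1% FBS, treated with TGF-β1 plus compound; TGF-β1 with DMSO as positive control, DMSO alone as negative control. After 4 days' incubation, SYTOX green nucleic acid stain added at 1 μM final, 30 min at room temperature.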

For assay [2], the system named is primary human mesenchymal stem cells (hMSCs). Nature of the assay: Tenocyte differentiation assay (SCXA-positive cells) in hMSCs. Particulars: for EC50: Homo sapiens, Mesenchymal stem cells, 96 h, hMSCs, 4 days, SCXA positive cells; for percent in parentheses under EC50 >100: given for EC50 >100 μM, meaning not defined in this example. Format: cell-based. The source says:
Representative compounds were screened using primary human mesenchymal stem cells (hMSCs) to determine their ability to induce tenocyte differentiation (process by which tendon is developed).
Primary human mesenchymal stem cells (hMSCs) were purchased from Lonza (Walkersville, Md.) and expanded in Mesenchymal Stem Cell Growth Media (Lonza). Cells between passage 3 and 6 were used for the experiments.
Cells were fixed using 4% formaldehyde (Electron Microscopy Sciences), and stained with anti-Sclerasis (anti-SCXA) antibodies (Abgent, San Diego, Calif.) [Webb S., et.al., Retinoic acid receptor signaling preserves tendon stem cell characteristics and prevents spontaneous differentiation in vitro, Stem Cell Research & Therapy 2016, 7:45] overnight at 4° C. […] Number of cells positive for SCXA in each well was quantified using the CellInsight CX5. Data was normalized to the average of 12 DMSO treated wells on the same plate using Dotmatics Studies module. The normalized averages (fold change over DMSO) of 3 replicate wells for each compound concentration were calculated. Due to solubility limitations of some of the compounds, values for higher doses were manually corrected and curve fitting and EC50 determinations were performed using Dotmatics Studies.

The next assay deals with IL-6. Kind of assay: IL-6 inhibition in LPS-stimulated human peripheral blood mononuclear cells (HTRF). Format: cell-based. Conditions: Homo sapiens, PBMC; for EC50: huPBMCs, LPS 50 ng/mL, 22 hours, IL-6 HTRF; for inhibition at 10 µM: read-out: percent inhibition at 10 μM. The procedure, abridged:
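HTRF 665/620 nm ratio, read after 3 h antibody incubation at room temperature, quantified IL-6 released by fresh human PBMCs (1×10e6 cells/mL, 1% FBS-RPMI). The cells got compound, then 50 ng/mL LPS at 2 h, followed by a further 22 h at 37° C. EC50 came from DMSO-normalized readings run in duplicate.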
(In general: TR-FRET usually uses a lanthanide donor and a delayed reading to cut background.)

The test system of assay [3] is Wnt activity (Sp5-Luc reporter in SW480 cells). Nature of the assay: Screening assay for Wnt activity: Sp5-Luc reporter gene assay in SW480 colon carcinoma cells. Format: cell-based, human. Conditions: Homo sapiens, 36 to 48 hours. The procedure, abridged:
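EC50 values come from a variable-slope four-parameter fit of luminescence normalized to DMSO-only wells. The read-out follows 36–48 h incubation at 37 °C, 5% CO2, in DMEM containing 1% fetal bovine serum. Cells are hygromycin-selected SW480 stably expressing firefly luciferase under a Wnt-responsive Sp5 promoter (eight TCF/LEF sites).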
(In general: Reporter assays use an easily measured gene product as a stand-in for the process of interest.)

A further assay deals with DYRK1A kinase (Homo sapiens (Human), UniProt Q13627). Kind of assay: DYRK1A kinase assay (Ser/Thr 18 peptide Z-lyte FRET). Particulars: read-out: EC50 (method: IC50). It counts as biochemical. Summed up:
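Kinase reactions with compound ran 1 h at room temperature in duplicate, and development reagent was then added for another hour.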

The next assay addresses GSK3β kinase (Homo sapiens (Human), UniProt P49841). Kind of assay: GSK3β kinase assay (Ser/Thr 09 peptide Z-lyte FRET). Particulars: read-out: EC50 (method: IC50). Format: biochemical. The procedure, abridged:
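Non-radioactive Z-lyte FRET read-out, kinase activity expressed as coumarin/fluorescein emission ratio. Compounds incubated with the reaction mixture one hour at room temperature in duplicate, then development buffer added for another hour. IC50 from non-linear regression of dose-response curves.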

For assay [4], the system named is SW480 colon carcinoma cells. Kind of assay: Cell viability assay (CellTiter-Glo) in SW480 colon carcinoma cells. It counts as cell-based, human. Conditions: Homo sapiens, 96 h, four days. The procedure, abridged:
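Viability was taken from CellTiter-Glo ATP luminescence, read about 12 min after reagent addition, relative to DMSO controls. The cells were Sp5-Luc reporter SW480 colon carcinoma cells, 2,000/well in 1% FBS DMEM, exposed to compound for four days at 37 °C.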
In general terms: Cellular ATP, detected with luciferase, serves as a proxy for viable cell number.

Each structure is given as a SMILES string.

GSK3β kinase, sequence (P49841 whole entry): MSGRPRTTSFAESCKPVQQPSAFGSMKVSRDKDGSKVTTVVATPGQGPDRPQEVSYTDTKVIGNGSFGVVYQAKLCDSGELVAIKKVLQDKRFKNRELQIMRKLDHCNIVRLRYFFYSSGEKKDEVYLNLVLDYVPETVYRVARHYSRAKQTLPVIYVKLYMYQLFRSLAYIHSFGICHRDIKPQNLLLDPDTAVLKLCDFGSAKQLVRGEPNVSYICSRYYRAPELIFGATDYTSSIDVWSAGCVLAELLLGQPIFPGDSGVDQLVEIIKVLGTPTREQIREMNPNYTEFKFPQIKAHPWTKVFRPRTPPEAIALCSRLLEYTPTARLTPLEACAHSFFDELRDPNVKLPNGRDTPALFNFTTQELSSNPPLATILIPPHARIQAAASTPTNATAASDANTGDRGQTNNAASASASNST

Turning to `CC(C)CN1CC[C@H](NC(=O)c2n[nH]c3c(F)cc(-c4cnn(C)c4)cc23)[C@@H](F)C1` [Compound 35, 7-Fluoro-N-((3S,4S)-3-fluoro-1-isobutylpiperidin-4-yl)-5-(1-methyl-1H-pyrazol-4-yl)-1H-indazole-3-carboxamide], the EC50 – broadly, the concentration that produces a half-maximal response – was 288 nM in assay [1]; 2070 nM in assay [2]; more than 10000 nM in the assay on IL-6; 345 nM in assay [3]; 8280 nM in assay [4]. Moreover, the inhibition (in general, the relative decrease from the control value, in per cent) at 10 µM with IL-6 was determined as 9.2%. Further, the IC50 (usually the concentration that gives 50% inhibition) on DYRK1A kinase amounted to 261 nM; at GSK3β kinase, 157 nM.
Take `Cc1ncc(-c2ccc3[nH]nc(C(=O)Nc4ccc(OC5CCN(C)CC5)cc4)c3c2)s1` [Compound 82, N-(4-((1-Methylpiperidin-4-yl)oxy)phenyl)-5-(2-methylthiazol-5-yl)-1H-indazole-3-carboxamide]: the EC50 is 288 nM in assay [1]; more than 100000 nM in assay [2]; 3930 nM in the assay on IL-6; 1460 nM in assay [3]; 1250 nM in assay [4]. Moreover, the “percent in parentheses under EC50 >100” value in assay [2] is listed as “(2.9%)”. In addition, the IC50 was determined as 7 nM on DYRK1A kinase and 41 nM on GSK3β kinase.
Take `CN1CCC(n2cc(-c3ccc4[nH]nc(C(=O)Nc5ccc(OC(F)F)nc5)c4c3)cn2)CC1` [Compound 88, N-(6-(Difluoromethoxy)pyridin-3-yl)-5-(1-(1-methylpiperidin-4-yl)-1H-pyrazol-4-yl)-1H-indazole-3-carboxamide]: the EC50 is 624 nM in assay [1]; 2550 nM in assay [2]; 8780 nM in the assay on IL-6; 435 nM in assay [3]; 338 nM in assay [4]. Further, the results for the IC50 at DYRK1A kinase and on GSK3β kinase were 16 nM and 774 nM, respectively.
Consider `CC(C)CN1CC[C@H](NC(=O)c2n[nH]c3ccc(-c4cnn(C5CC5)c4)cc23)[C@@H](F)C1` [Compound 99, 5-(1-Cyclopropyl-1H-pyrazol-4-yl)-N-((3 S,4S)-3-fluoro-1-isobutylpiperidin-4-yl)-1H-indazole-3-carboxamide], for which the concentration giving a half-maximal response (EC50) was 855 nM in assay [1]; 2830 nM in assay [2]; 3280 nM in the assay with IL-6; 840 nM in assay [3]; 5180 nM in assay [4]. For the same compound, the IC50 at DYRK1A kinase amounted to 813 nM; at GSK3β kinase, 68 nM.
For `Cc1ncc(-c2ccc3[nH]nc(C(=O)N[C@H]4CCN(CC(C)C)C[C@@H]4F)c3c2)n1C` [Compound 100, 5-(1,2-Dimethyl-1H-imidazol-5-yl)-N-((3 S,4 S)-3-fluoro-1-isobutylpiperidin-4-yl)-1H-indazole-3-carboxamide], the EC50 in assay [1] was 2360 nM; in assay [2], 1880 nM; with IL-6 it was more than 10000 nM; in assay [3], 1020 nM; in assay [4], 8020 nM. In the assay with IL-6, the inhibition at 10 µM amounted to 5.5%. Further, the figures for the IC50 on DYRK1A kinase and at GSK3β kinase were 46 nM and 43 nM, respectively.
With `Cn1cc(-c2cc(F)c3[nH]nc(C(=O)NC4CCN(CC(F)F)CC4)c3c2)cn1` [Compound 101, N-(1-(2,2-Difluoroethyl)piperidin-4-yl)-7-fluoro-5-(1-methyl-1H-pyrazol-4-yl)-1H-indazole-3-carboxamide], the EC50 in assay [1] is more than 10000 nM; in assay [2], more than 100000 nM; in the assay on IL-6, more than 10000 nM; in assay [3] it was more than 10000 nM; in assay [4], more than 10000 nM. Besides, in assay [2], the “percent in parentheses under EC50 >100” value is given as “(33.0%)”. The inhibition at 10 µM in the assay with IL-6 was 14.1%. The IC50 at DYRK1A kinase came to 408 nM; on GSK3β kinase, 86 nM.
Consider `Cn1cc(-c2ccc3[nH]nc(C(=O)NCC(F)(F)CN4CCCC4)c3c2)cn1` [Compound 106, N-(2,2-Difluoro-3-(pyrrolidin-1-yl)propyl)-5-(1-methyl-1H-pyrazol-4-yl)-1H-indazole-3-carboxamide], for which the EC50 in assay [1] was 795 nM; in assay [2], 1300 nM; in the assay on IL-6 it was 6850 nM; in assay [3] it was 685 nM; in assay [4], more than 10000 nM. Also, the values for the IC50 at DYRK1A kinase and on GSK3β kinase were 40 nM and 14 nM, respectively.
For the compound `Cn1cc(-c2cc(F)c3[nH]nc(C(=O)Nc4ccc(CN5CCCC5)cc4)c3c2)cn1` [Compound 119, 7-Fluoro-5-(1-methyl-1H-pyrazol-4-yl)-N-(4-(pyrrolidin-1-ylmethyl)phenyl)-1H-indazole-3-carboxamide], the EC50 came to 315 nM in assay [1]; 14000 nM in assay [2]; 1930 nM in the assay with IL-6; 3060 nM in assay [3]; 1870 nM in assay [4]. Also, the half-maximal inhibitory concentration (IC50) at DYRK1A kinase amounted to 21 nM; on GSK3β kinase, 41 nM.
Consider `CN1CCC(Oc2ccc(NC(=O)c3n[nH]c4ccc(-c5cnn(C)c5)cc34)cc2)CC1` [Compound 122, 5-(1-Methyl-1H-pyrazol-4-yl)-N-(4-((1-methylpiperidin-4-yl)oxy)phenyl)-1H-indazole-3-carboxamide], for which the 50% effective concentration (EC50) in assay [1] was 2640 nM; in assay [2], more than 100000 nM; with IL-6, 948 nM; in assay [3], 205 nM; in assay [4], 380 nM. The “percent in parentheses under EC50 >100” value in assay [2] is given as “(37.4%)”. The IC50 was found to be 2 nM at DYRK1A kinase and 38 nM on GSK3β kinase.
As to `CN1CCC(Oc2ccc(NC(=O)c3n[nH]c4ccc(-c5cnn(C)c5)cc34)cn2)CC1` [Compound 124, 5-(1-Methyl-1H-pyrazol-4-yl)-N-(6-((1-methylpiperidin-4-yl)oxy)pyridin-3-yl)-1H-indazole-3-carboxamide], the EC50 in assay [1] amounted to 101 nM; in assay [2], 315 nM; with IL-6 it was 989 nM; in assay [3], 140 nM; in assay [4], 170 nM. Besides, the IC50 came to 1 nM on DYRK1A kinase and 23 nM on GSK3β kinase.
Regarding `CN1CCC(n2cc(-c3ccc4[nH]nc(C(=O)Nc5cncc(F)c5)c4c3)cn2)CC1` [Compound 125, N-(5-Fluoropyridin-3-yl)-5-(1-(1-methylpiperidin-4-yl)-1H-pyrazol-4-yl)-1H-indazole-3-carboxamide], the EC50 was 599 nM in assay [1]; more than 100000 nM in assay [2]; 3520 nM with IL-6; 355 nM in assay [3]; 664 nM in assay [4]. The “percent in parentheses under EC50 >100” value in assay [2] was “(12.3%)”. Further, the results for the IC50 on DYRK1A kinase and on GSK3β kinase were 8 nM and 278 nM, respectively.
Consider `CN1CCC(n2cc(-c3cc4c(C(=O)Nc5cncc(F)c5)n[nH]c4cc3F)cn2)CC1` [Compound 126, 6-Fluoro-N-(5-fluoropyridin-3-yl)-5-(1-(1-methylpiperidin-4-yl)-1H-pyrazol-4-yl)-1H-indazole-3-carboxamide], for which the EC50 turned out to be 2450 nM in assay [1]; 2590 nM in assay [2]; 5780 nM with IL-6; 335 nM in assay [3]; 1530 nM in assay [4]. The IC50 on DYRK1A kinase was 9 nM; on GSK3β kinase, 237 nM.
`Cc1ncc(NC(=O)c2n[nH]c3cc(F)c(-c4cnn(C5CCN(C)CC5)c4)cc23)s1` [Compound 127, 6-Fluoro-5-(1-(1-methylpiperidin-4-yl)-1H-pyrazol-4-yl)-N-(2-methylthiazol-5-yl)-1H-indazole-3-carboxamide]: the EC50 worked out at 48 nM in assay [1]; 2490 nM in assay [2]; 786 nM in the assay with IL-6; 100 nM in assay [3]; 93 nM in assay [4]. The IC50 on DYRK1A kinase is 4 nM; on GSK3β kinase it was 245 nM.
